Structures are written as SMILES.

Consider 5 compounds from patent US12209102B2, “Heterocyclic compounds and uses thereof” (Kumquat Biosciences Inc., priority 2022, dated 2025).

In experiment [1] the test system is A549 cells. Description: Ras cellular assay, growth of cells with K-Ras G12S mutation (CellTiter-Glo). It is filed as cell-based. To be noted: Homo sapiens, cell growth, Example 9, G12S mutation, read-out: IC50 against A549 cells. The method, boiled down:
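A549 cells (K-Ras G12S) in RPMI-1640 with 10% heat-inactivated FBS, seeded e.g. 800 per well in standard or ultra-low-attachment 384-well plates, treated next day with a dilution series (e.g. 10-point, 3-fold). Viability by CellTiter-Glo luminescence about 6 days later; IC50 from four-parameter fit.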

Experiment [2] has as its target T1, K-Ras G12S (Homo sapiens, UniProt P01116, G12S).
T1 construct: made in house; host or cells: E. coli BL21 (DE3)
Description: HTRF resonance energy transfer assay, K-Ras G12S / SOS1 interaction. Type of experiment: biochemical. To be noted: HTRF assay of Example 5; read-out: IC50 against K-Ras G12S. The method, boiled down: (§1)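 Read-out: HTRF 665/620 nm ratio (excitation 337 nm) after roughly 10 min or longer incubation, used to derive IC50. Donor anti-GST-Eu on GST-K-Ras; acceptor anti-6His-XL665 on His-hSOS1. Duplicate dose series from 10 μM down to 0.01 μM.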
(In general: In TR-FRET formats the signal depends on donor and acceptor labels being close together.)

In experiment [3] the target is T2, K-Ras G12D (Homo sapiens, UniProt P01116, G12D).
T2 construct: made in house; host or cells: E. coli BL21 (DE3)
Description: HTRF resonance energy transfer assay, K-Ras G12D / SOS1 interaction. It is filed as biochemical. To be noted: HTRF assay of Example 5; read-out: IC50 against K-Ras G12D. The method, boiled down:
as §1

Experiment [4] addresses T3, K-Ras WT (Homo sapiens, UniProt P01116).
T3 construct: made in house; host or cells: E. coli BL21 (DE3)
Nature of the experiment: HTRF resonance energy transfer assay, K-Ras WT / SOS1 interaction. The settings on record: HTRF assay of Example 5; read-out: IC50 against K-Ras WT. It is filed as biochemical. The method, boiled down: as §1

The target in experiment [5] is T4, K-Ras G12V (Homo sapiens, UniProt P01116, G12V).
T4 construct: made in house; host or cells: E. coli BL21 (DE3)
Description: HTRF resonance energy transfer assay, K-Ras G12V / SOS1 interaction. The settings on record: HTRF assay of Example 5; read-out: IC50 against K-Ras G12V. Type of experiment: biochemical. In outline:
as §1

For experiment [6], the system named is SW620 cells. Nature of the experiment: Ras cellular assay, growth of cells with K-Ras G12V mutation (CellTiter-Glo). It is filed as cell-based. The settings on record: Homo sapiens, SW-620; cell growth, Example 9, G12V mutation; read-out: IC50 against SW620 cells. The method, boiled down: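 SW620 (K-Ras G12V) cells, e.g. 800/well in RPMI-1640 with 10% heat-inactivated FBS on standard or ultra-low attachment plates, were dosed the day after plating with e.g. a 10-point 3-fold series. Viability by CellTiter-Glo luminescence about 6 days later; IC50 from four-parameter fit.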
On the technique in general: Cellular ATP, detected with luciferase, serves as a proxy for viable cell number.

T1 sequence (P01116 1-188 isoform P01116-2 G12S): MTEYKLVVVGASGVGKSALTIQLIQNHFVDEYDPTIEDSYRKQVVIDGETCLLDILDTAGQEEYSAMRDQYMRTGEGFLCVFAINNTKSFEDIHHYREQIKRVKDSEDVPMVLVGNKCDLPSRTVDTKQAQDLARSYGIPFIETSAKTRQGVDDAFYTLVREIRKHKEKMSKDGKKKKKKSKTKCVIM
T3 sequence (P01116 1-188 isoform P01116-2): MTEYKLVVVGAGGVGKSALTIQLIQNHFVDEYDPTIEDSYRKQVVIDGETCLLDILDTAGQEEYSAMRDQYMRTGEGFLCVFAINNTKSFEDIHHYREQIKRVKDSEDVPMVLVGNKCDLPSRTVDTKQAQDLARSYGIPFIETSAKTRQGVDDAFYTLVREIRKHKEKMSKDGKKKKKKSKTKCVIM
T2 sequence (P01116 1-188 isoform P01116-2 G12D): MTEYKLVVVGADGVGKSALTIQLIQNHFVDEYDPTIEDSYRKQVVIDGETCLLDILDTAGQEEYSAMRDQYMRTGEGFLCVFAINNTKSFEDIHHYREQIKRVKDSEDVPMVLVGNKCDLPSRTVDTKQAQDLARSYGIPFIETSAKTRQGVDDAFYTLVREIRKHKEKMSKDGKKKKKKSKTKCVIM
T4 sequence (P01116 1-188 isoform P01116-2 G12V): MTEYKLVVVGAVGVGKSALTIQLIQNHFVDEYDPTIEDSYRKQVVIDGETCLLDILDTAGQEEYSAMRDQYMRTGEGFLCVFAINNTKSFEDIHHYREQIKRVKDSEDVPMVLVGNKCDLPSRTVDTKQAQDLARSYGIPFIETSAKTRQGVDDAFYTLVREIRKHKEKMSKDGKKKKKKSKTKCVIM

By IC50 is commonly meant the midpoint of a concentration-inhibition curve. In the case of `N#Cc1c(N)sc2c(F)ccc(-c3c(Cl)c4c5c(nc(OC[C@@]67CCCN6C[C@H](F)C7)nc5c3F)N(C3CC(NC(=O)[C@@H]5N[C@H]5C5CC5)C3)CCO4)c12` (stereo partly drawn) [Compound 1082, (2R,3S)-N-(3-(9-(2-amino-3-cyano-7-fluorobenzo[b]thiophen-4-yl)-8-chloro-10-fluoro-2-(((2R,7aS)-2-fluorotetrahydro-1H-pyrrolizin-7a(5H)-yl)methoxy)-5,6-dihydro-4H-[1,4]oxazepino[5,6,7-de]quinazolin-4-yl)cyclobutyl)-3-cyclopropylaziridine-2-carboxamide], the IC50 in experiment [1] is < 5000 nM; in experiment [2], < 100 nM; in experiment [3], < 100 nM; in experiment [4], < 100 nM; in experiment [5] it was < 100 nM; in experiment [6] it was < 5000 nM.

Consider `CNC(=O)C1CC(N2CCOc3c(Cl)c(-c4ccc(F)c5sc(N)c(C#N)c45)c(F)c4nc(OC[C@@]56CCCN5C[C@H](F)C6)nc2c34)CCO1` (stereo partly drawn) [Compound 1094, 4-(9-(2-amino-3-cyano-7-fluorobenzo[b]thiophen-4-yl)-8-chloro-10-fluoro-2-(((2R,7aS)-2-fluorotetrahydro-1H-pyrrolizin-7a(5H)-yl)methoxy)-5,6-dihydro-4H-[1,4]oxazepino[5,6,7-de]quinazolin-4-yl)-N-methyltetrahydro-2H-pyran-2-carboxamide], for which the IC50 is < 5000 nM in experiment [1]; < 100 nM in experiment [2]; < 100 nM in experiment [3]; < 100 nM in experiment [4]; < 100 nM in experiment [5]; < 5000 nM in experiment [6].

`N#Cc1c(N)sc2c(F)ccc(-c3c(Cl)c4c5c(nc(OC[C@@]67CCCN6C[C@H](F)C7)nc5c3F)N(C3CCCCC3)CCO4)c12` [Compound 1116, 2-amino-4-(8-chloro-4-cyclohexyl-10-fluoro-2-(((2R,7aS)-2-fluorotetrahydro-1H-pyrrolizin-7a(5H)-yl)methoxy)-5,6-dihydro-4H-[1,4]oxazepino[5,6,7-de]quinazolin-9-yl)-7-fluorobenzo[b]thiophene-3-carbonitrile]: the IC50 in experiment [1] was < 5000 nM; in experiment [2] it was < 100 nM; in experiment [3], < 100 nM; in experiment [4] it was < 100 nM; in experiment [5], < 100 nM; in experiment [6], < 5000 nM.

For the compound `CNC(=O)C1CCC(N2CCOc3c(Cl)c(-c4ccc(F)c5sc(N)c(C#N)c45)c(F)c4nc(OC[C@@]56CCCN5C[C@H](F)C6)nc2c34)CC1` (stereo partly drawn) [Compound 1120, 4-(9-(2-amino-3-cyano-7-fluorobenzo[b]thiophen-4-yl)-8-chloro-10-fluoro-2-(((2R,7aS)-2-fluorotetrahydro-1H-pyrrolizin-7a(5H)-yl)methoxy)-5,6-dihydro-4H-[1,4]oxazepino[5,6,7-de]quinazolin-4-yl)-N-methylcyclohexane-1-carboxamide], the IC50 in experiment [1] was < 5000 nM; in experiment [2] it was < 100 nM; in experiment [3], < 100 nM; in experiment [4], < 100 nM; in experiment [5], < 100 nM; in experiment [6], < 5000 nM.

Consider `N#Cc1c(N)sc2c(F)ccc(-c3c(Cl)c4c5c(nc(OC[C@@]67CCCN6C[C@H](F)C7)nc5c3F)N(CC(F)F)CC(C3CC3)O4)c12` (stereo partly drawn) [Compound 1128, 2-amino-4-(8-chloro-6-cyclopropyl-4-(2,2-difluoroethyl)-10-fluoro-2-(((2R,7aS)-2-fluorotetrahydro-1H-pyrrolizin-7a(5H)-yl)methoxy)-5,6-dihydro-4H-[1,4]oxazepino[5,6,7-de]quinazolin-9-yl)-7-fluorobenzo[b]thiophene-3-carbonitrile], for which the IC50 is < 5000 nM in experiment [1]; < 100 nM in experiment [2]; < 100 nM in experiment [3]; < 100 nM in experiment [4]; < 100 nM in experiment [5]; < 5000 nM in experiment [6].
